Laboratory results reported in BindingDB's records for doi:10.7270/Q2NV9GNV (Vanderbilt Screening Center for GPCRs, Ion Channels and …, 2009).

Target: T1, Muscarinic acetylcholine receptor M4 (Rattus norvegicus, UniProt P08485)
T1 sequence (P08485 whole entry): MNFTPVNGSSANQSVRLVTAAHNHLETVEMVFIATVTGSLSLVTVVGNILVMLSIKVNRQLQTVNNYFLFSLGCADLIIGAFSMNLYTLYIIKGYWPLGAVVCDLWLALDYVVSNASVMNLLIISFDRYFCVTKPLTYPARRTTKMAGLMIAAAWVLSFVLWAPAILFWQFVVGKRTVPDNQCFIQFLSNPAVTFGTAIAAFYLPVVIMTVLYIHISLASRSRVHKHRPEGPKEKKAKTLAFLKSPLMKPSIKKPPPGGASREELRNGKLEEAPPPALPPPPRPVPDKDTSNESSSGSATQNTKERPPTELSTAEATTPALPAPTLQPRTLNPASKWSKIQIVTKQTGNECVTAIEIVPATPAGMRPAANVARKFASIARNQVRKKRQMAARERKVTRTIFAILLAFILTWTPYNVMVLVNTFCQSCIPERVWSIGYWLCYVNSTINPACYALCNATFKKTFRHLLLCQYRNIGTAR
Assay: rat M4 radioligand competition binding – biochemical, NMS competition, mechanism study for M4 PAM project, late-stage follow-up (AID 1939)
Conditions: inactive by the depositor's call

Work on `Cc1cc(C)c2c(N)c(C(=O)NCc3ccc4c(c3)OCO4)sc2n1` [3-amino-4,6-dimethyl-N-piperonyl-thieno[2,3-b]pyridine-2-carboxamide] yielded a Ki of 46.8 nM.
